Test results published in patent publication US20260083727A1, “PHARMACEUTICAL FORMULATIONS OF NINTEDANIB FOR INTRAOCULAR USE” (Boehringer Ingelheim International GmbH, priority 2022, published 2026).

Assay: Water solubility
Assay type: physicochemical
Settings: in words

solubility in water: very poor
Compound: COC(=O)c1ccc2c(c1)NC(=O)/C2=C(\Nc1ccc(N(C)C(=O)CN2CCN(C)CC2)cc1)c1ccccc1 [nintedanib (free base)]
